Literature values, collected in patent publication US20040024065A1, “Novel metabolic targets and markers” (priority 2002, published 2004).

Tests used:
[1] = system: rat hepatocytes; conditions: rat hepatocytes incubated with inhibitor
[2] = system: PEMT; conditions: alcohol consumption, before the development of cirrhosis

Structure (SMILES) | PC synthesis via methylation of PE derived from ethanolamine, inhibited [1] | amount of PE in the cells [1] | amount of PE secreted into the medium, increase [1] | secretion of the apoproteins into VLDL, LDL, HDL fractions or fraction with density greater than 1.18 g/ml [1] | activity of PEMT [2]
Nc1nccc2c1ncn2[C@@H]1O[C@H](CO)[C@@H](O)[C@H]1O [3-deazaadenosine] | more than 95% | doubled | 70% | not affected | 
CCO [alcohol] |  |  |  |  | depresses
